Columns and labels:
[1] = tested on: Ps. aeruginosa-2 (clinical isolate); assay: Antibacterial activity, wider range of bacteria; format: cell-based, Pseudomonas aeruginosa; conditions: Table 6
Experimental: (§1) Bacterial cell culture testing was performed and interpreted following the guidelines of the National Committee for Clinical Laboratory Standards (National Committee for Clinical Laboratory Standards. Methods for Dilution Antimicrobial Susceptibility Tests for Bacteria that Grow Aerobically. Approved Standard M7-A3. National Committee for Clinical Laboratory Standards, Villanova, Pa. 1993). After incubation, the growth of the cells was visually inspected. The minimum inhibitory concentration (MIC) is the lowest concentration where there no cell growth was observed.
(§2) All bacterial strains and plasmids are available from Jesus Blazquez and Fernando Baquero, Servicio de Microbiologia, Hospital Ramon y Cajal National Institute of Health, Madrid, Spain.

[2] = tested on: Ps. aeruginosa-3 (clinical isolate); assay: Antibacterial activity, wider range of bacteria; format: cell-based, Pseudomonas aeruginosa; conditions: Table 6
Experimental: as §1, §2

[3] = tested on: β-lactamase derepressed strain of Enterobacter cloacae (Ent-Der); assay: microbe, parasite or virus in culture; format: cell-based; conditions: Ent. Der. As to MIC of ceftazidime plus inhibitor: values in µg/ml.
Experimental: (§3) After incubation, the growth of the cells was visually inspected. The minimum inhibitory concentration (MIC) is the lowest concentration where there no cell growth was observed.
(§4) The following strains were used: Enterobacter cloacae cell line with derepressed β-lactamase production (Ent-Der), and Escherichia coli RYC1000 (araD139 D lacU169 rpsL D rib7 thiA gyrA recA56) cell lines, harboring the plasmid pBGS19 (with no β-lactamase), or the β-lactamase containing plasmids pBGAmpC (AmpC β-lactamase from E. coli; Eco-AmpC), or pBGAmpC-MHN (AmpC β-lactamase from Enterobacter cloacae; Eco-AmpCEnt). […] TEM-10 and TEM-24 differ from TEM-1 due to the following point substitutions: TEM-10 (R164S, E240K); TEM-24 (L102K, L162S, S235T, A237K). TEM-10 and TEM-24 also differ from TEM-1 in being extended spectrum enzymes (i.e., they react with a greater range of substrates than TEM-1). Also tested were clinical isolates of Pseudomonas aeruginosa. All bacterial strains and plasmids are available from Jesus Blazquez and Fernando Baquero, Servicio de Microbiologia, Hospital Ramon y Cajal, National Institute of Health, Madrid, Spain.
(§5) Several ratios, including 1:1, 2:1, 4:1, and 1:3, of β-lactam antibiotic (amoxicillin (AX) or ceftazidime (CAZ)) to boronic acid compound were used in the assays. Tazobactam (TAZO), a clinically used β-lactamase inibitor, was used as a positive control.

[4] = tested on: E. coli derrepr. (clinical isolate); assay: Antibacterial activity, wider range of bacteria; format: cell-based; conditions: Table 6
Experimental: as §1, §2

[5] = tested on: Pseudomonas aeruginosa-1 (clinical isolate); assay: Antibacterial activity, wider range of bacteria; format: cell-based; conditions: Table 6
Experimental: as §1, §2

[6] = tested on: Citrobacter freundii derrepressed (clinical isolate); assay: Antibacterial activity, wider range of bacteria; format: cell-based; conditions: Table 6
Experimental: as §1, §2

[7] = tested on: Enterobacter cloacae derrepressed (clinical isolate); assay: Antibacterial activity, wider range of bacteria; format: cell-based; conditions: Table 6
Experimental: as §1, §2

[8] = tested on: E. coli RYC1000 harboring plasmid pBGS19 (no β-lactamase); assay: microbe, parasite or virus in culture; format: cell-based, Escherichia coli; conditions: pBGS19
Experimental: as §3, §4, §5

[9] = tested on: E. coli RYC1000 harboring plasmid pBGTEM-24 (TEM-24 β-lactamase); assay: microbe, parasite or virus in culture; format: cell-based, Escherichia coli; as to MIC of ceftazidime plus inhibitor: values in µg/ml
Experimental: as §3, §4, §5

[10] = tested on: E. coli RYC1000 harboring plasmid pBGAmpC-MHN (AmpC β-lactamase of Enterobacter cloacae); assay: microbe, parasite or virus in culture; format: cell-based, Escherichia coli; conditions: AmpC-MHN
Experimental: as §3, §4, §5

[11] = tested on: MC4100/AmpC-E. coli (OmpR-); assay: Antibacterial activity, wider range of bacteria; format: cell-based; conditions: Table 6
Experimental: as §1, §2

[12] = tested on: MC4100/AmpC-E. coli (OmpC-); assay: Antibacterial activity, wider range of bacteria; format: cell-based; conditions: Table 6
Experimental: as §1, §2

MC4100/AmpC-E. coli = assay: Antibacterial activity, wider range of bacteria; format: cell-based; conditions: Table 6
Experimental: as §1, §2

[13] = tested on: MC4100/AmpC-E. coli (OmpF-); assay: Antibacterial activity, wider range of bacteria; format: cell-based; conditions: Table 6
Experimental: as §1, §2

[14] = tested on: MC4100/AmpC-Enter (OmpF-); assay: Antibacterial activity, wider range of bacteria; format: cell-based, E. coli; conditions: Table 6
Experimental: as §1, §2

[15] = tested on: MC4100/AmpC-Enter (OmpR-); assay: Antibacterial activity, wider range of bacteria; format: cell-based, E. coli; conditions: Table 6
Experimental: as §1, §2

MC4 100/AmpC-Enter = assay: Antibacterial activity, wider range of bacteria; format: cell-based, E. coli; conditions: Table 6
Experimental: as §1, §2

[16] = tested on: MC4100/AmpC-Enter (OmpC-); assay: Antibacterial activity, wider range of bacteria; format: cell-based, E. coli; conditions: Table 6
Experimental: as §1, §2

[17] = target: Enterobacter cloacae P99 β-lactamase (Enterobacter cloacae, UniProt P05364); conditions: Dryjanski and Pratt, Biochemistry 34, 3561-3568 (1995); cited from earlier work
Enterobacter cloacae P99 β-lactamase, sequence (P05364 21-381): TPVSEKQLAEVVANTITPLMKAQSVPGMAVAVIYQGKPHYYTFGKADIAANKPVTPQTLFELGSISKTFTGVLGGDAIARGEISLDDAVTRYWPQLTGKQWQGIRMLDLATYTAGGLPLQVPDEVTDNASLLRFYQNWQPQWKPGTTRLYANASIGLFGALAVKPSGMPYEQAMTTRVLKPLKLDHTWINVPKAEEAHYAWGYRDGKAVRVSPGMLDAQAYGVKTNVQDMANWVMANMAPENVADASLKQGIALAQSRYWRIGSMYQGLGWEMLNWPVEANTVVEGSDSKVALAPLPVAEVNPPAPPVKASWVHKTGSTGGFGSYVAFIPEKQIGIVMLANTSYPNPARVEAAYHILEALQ

[18] = target: T1, TEM-1 β-lactamase from E. coli (Escherichia coli, UniProt P62593); assay: Inhibition of TEM-1 β-lactamase, spectrophotometric assay (FAP substrate); format: biochemical
T1 construct: gift: Natalie Strynadka, University of Alberta
T1 sequence (P62593 24-286 limits assumed): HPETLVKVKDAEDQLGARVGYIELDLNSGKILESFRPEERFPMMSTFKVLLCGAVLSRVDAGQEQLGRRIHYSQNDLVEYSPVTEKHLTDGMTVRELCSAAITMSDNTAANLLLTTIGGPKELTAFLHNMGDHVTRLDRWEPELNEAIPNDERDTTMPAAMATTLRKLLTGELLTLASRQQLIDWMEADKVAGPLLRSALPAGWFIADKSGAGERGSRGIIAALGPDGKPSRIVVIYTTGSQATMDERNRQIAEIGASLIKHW

[19] = target: AmpC β-lactamase from E. coli (Escherichia coli, UniProt P00811); assay: biochemical; format: biochemical; conditions: Ki E. coli AmpC
AmpC β-lactamase from E. coli, sequence (P00811 20-377): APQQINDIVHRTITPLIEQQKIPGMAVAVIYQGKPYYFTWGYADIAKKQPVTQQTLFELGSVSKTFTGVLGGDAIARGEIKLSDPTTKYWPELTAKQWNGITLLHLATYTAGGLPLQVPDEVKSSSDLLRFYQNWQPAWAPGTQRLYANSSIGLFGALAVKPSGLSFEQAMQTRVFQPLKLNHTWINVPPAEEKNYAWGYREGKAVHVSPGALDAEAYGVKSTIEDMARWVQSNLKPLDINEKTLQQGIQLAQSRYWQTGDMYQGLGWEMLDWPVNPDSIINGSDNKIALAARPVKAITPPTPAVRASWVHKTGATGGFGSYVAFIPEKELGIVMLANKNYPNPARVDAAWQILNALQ

[20] = Table 3A, proportion 4/1, given as CAZ/inhibitor
[21] = Enterobacter cloacae, Table 3A, CAZ alone, read-out: MIC of ceftazidime (CAZ)
[22] = Escherichia coli, Table 3A, CAZ alone, read-out: MIC of ceftazidime (CAZ)

## OB(O)c1cc2ccccc2s1 [BZBTH2B, benzo[b]thiophene-2-boronic acid]
[1]
  MIC, agent alone (CAZ alone / BZB only): 512
[2]
  MIC, agent alone (CAZ alone / BZB only): 512
[3]; [20]
  MIC of ceftazidime plus inhibitor: 32/8
[3]; Table 3B
  MIC of inhibitor used alone without ceftazidime: 512 µg/mL
[4]
  MIC, agent alone (CAZ alone / BZB only): 128
[5]
  MIC, agent alone (CAZ alone / BZB only): 512
[6]
  MIC, agent alone (CAZ alone / BZB only): 128
[7]
  MIC, agent alone (CAZ alone / BZB only): 128
[8]; Table 3A, proportion 4/1
  MIC of ceftazidime plus inhibitor: <0.25 µg/mL
[8]; Table 3B
  MIC of inhibitor used alone without ceftazidime: 512 µg/mL
[9]; [20]
  MIC of ceftazidime plus inhibitor: 128/32
[9]; Table 3B
  MIC of inhibitor used alone without ceftazidime: 512 µg/mL
[10]; Table 3B
  MIC of inhibitor used alone without ceftazidime: 512 µg/mL

## CC(C)(O/N=C(\C(=O)N[C@@H]1C(=O)N2C(C(=O)[O-])=C(C[n+]3ccccc3)CS[C@H]12)c1csc(N)n1)C(=O)O [CAZ, ceftazidime, reference compound]
[1]
  MIC, agent alone (CAZ alone / BZB only): 32
[2]
  MIC, agent alone (CAZ alone / BZB only): 64
[3]; [21]
  MIC: 512 µg/mL
[4]
  MIC, agent alone (CAZ alone / BZB only): 16
[11]
  MIC, agent alone (CAZ alone / BZB only): 8
[12]
  MIC, agent alone (CAZ alone / BZB only): 16
[5]
  MIC, agent alone (CAZ alone / BZB only): 8
[6]
  MIC, agent alone (CAZ alone / BZB only): 16
MC4100/AmpC-E. coli
  MIC, agent alone (CAZ alone / BZB only): 8
[7]
  MIC, agent alone (CAZ alone / BZB only): 16
[13]
  MIC, agent alone (CAZ alone / BZB only): 32
[14]
  MIC, agent alone (CAZ alone / BZB only): 32
[15]
  MIC, agent alone (CAZ alone / BZB only): 32
MC4 100/AmpC-Enter
  MIC, agent alone (CAZ alone / BZB only): 32
[16]
  MIC, agent alone (CAZ alone / BZB only): 16
[8]; [22]
  MIC: < 0.5 µg/mL
[9]; [22]
  MIC: 256 µg/mL
[10]; [21]
  MIC: 32 µg/mL

## CN(C)c1cccc2c(S(=O)(=O)Nc3cccc(B(O)O)c3)cccc12 [NSULFB, m-(dansylamidophenyl)-boronic acid, reference compound]
[17]
  inhibitor of Enterobacter cloacae P99 β-lactamase (in words): submicromolar
[18]
  Ki: 88 µM
[19]
  Ki: 1.6 µM
